Experimental data from ChEMBL document CHEMBL3608302, “Identification of 2-aminopyrimidine derivatives as inhibitors of the canonical Wnt signaling pathway” (Bioorg Med Chem, 2015).
Values after ≈ are worked out from the molar mass of the structure shown.

Columns and labels:
[1] = Inhibition of canonical Wnt pathway in human DBTRG-05-MG cells after 36 hrs by TCF-luciferase and TA-renilla dual-luciferase reporter assay; type: cell-based
[2] = Solubility of the compound at pH 3 to 7.4 after 24 hrs; type: physicochemical; conditions: buffer; for solubility: pH 3, 24 h; for solubility at 24 h: pH 3
CYP3A4 = CYP3A4 (Homo sapiens, UniProt P08684); experiment: Metabolic stability of in DMSO solution assessed as human CYP3A4-mediated drug degdaradtion by measuring compound remaining at 1 uM after 1 hr in presence of human CYP3A4 and NADPH; type: ADME; conditions: human CYP3A4 enzyme, read-out: Stability
Chain of CYP3A4 (P08684 whole entry): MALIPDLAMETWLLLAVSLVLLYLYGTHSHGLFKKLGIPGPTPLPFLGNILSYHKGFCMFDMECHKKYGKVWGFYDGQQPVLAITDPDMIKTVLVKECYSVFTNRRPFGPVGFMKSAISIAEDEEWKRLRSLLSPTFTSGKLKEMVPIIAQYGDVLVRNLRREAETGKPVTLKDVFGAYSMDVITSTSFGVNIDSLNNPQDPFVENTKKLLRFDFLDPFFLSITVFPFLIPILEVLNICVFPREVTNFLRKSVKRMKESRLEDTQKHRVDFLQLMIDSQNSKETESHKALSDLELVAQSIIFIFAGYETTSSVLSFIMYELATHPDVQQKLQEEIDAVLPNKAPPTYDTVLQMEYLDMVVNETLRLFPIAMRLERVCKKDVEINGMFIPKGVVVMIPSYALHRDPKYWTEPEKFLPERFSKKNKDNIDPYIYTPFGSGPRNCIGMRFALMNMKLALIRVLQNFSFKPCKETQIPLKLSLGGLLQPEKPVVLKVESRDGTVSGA

[3] = Permeability of the compound by PAMPA; type: physicochemical; conditions: read-out: permeability
[4] = Homo sapiens, DBTRG-05MG, 36 h, read-out: IC50

Row | SMILES | IC50 [1, 4] | solubility [2] | remaining at 1 h, 1 µM (CYP3A4) | IC50 [1] | Papp [3] | solubility at 24 h [2]
1 | Cc1cc(-c2cnc(N3CCOCC3)nc2-c2ccc(C)s2)on1 | 8.5 µM | Insoluble | < 20% | – | – | –
2 | Cc1cc(-c2cnc(N3CCCC3)nc2-c2ccc(C)s2)on1 | – | Insoluble | < 20% | Not Active | – | –
3 | COCCNc1ncc(-c2cc(C)no2)c(-c2ccc(C)s2)n1 | – | Insoluble | 27% | Not Active | > 10 ×10⁻⁶ cm/s | –
4 | Cc1cc(-c2cnc(NCc3cccnc3)nc2-c2ccc(C)s2)on1 | 17.6 µM | – | < 20% | – | – | 1 µM (≈ 0.363 µg/mL)
5 | Cc1cc(-c2cnc(NC(C)C)nc2C2CCN(C(=O)c3ccc(C)s3)CC2)on1 | 8.05 µM | Insoluble | < 20% | – | – | –
6 | Cc1cc(-c2cnc(NC(C)C)nc2-c2ccc(C)s2)on1 | – | Insoluble | 20% | Not Active | – | –
7 | Cc1cc(-c2cnc(N3CCN(C)CC3)nc2-c2ccc(C)s2)on1 | – | – | 51% | Not Active | > 10 ×10⁻⁶ cm/s | 11 µM (≈ 3.91 µg/mL)
8 | Cc1cc(-c2cnc(NCc3ccc(F)cc3)nc2-c2ccc(C)s2)on1 | – | Insoluble | 29% | Not Active | – | –
9 | Cc1cc(-c2cnc(NCc3ccccn3)nc2-c2ccc(C)s2)on1 | 13.9 µM | – | < 20% | – | – | 1 µM (≈ 0.363 µg/mL)
10 | Cc1cc(-c2cnc(N3CC(C)OC(C)C3)nc2-c2ccc(C)s2)on1 (stereo not drawn) | 14.1 µM | Insoluble | < 20% | – | – | –

More lines, now with the values ahead:

Row | IC50 [1, 4] | solubility [2] | remaining at 1 h, 1 µM (CYP3A4) | IC50 [1] | Papp [3] | solubility at 24 h [2] | SMILES
11 | – | – | 100% | Not Active | 2 ×10⁻⁶ cm/s | 225 µM (≈ 86.5 µg/mL) | CC(=O)N1CCC(c2nc(N3CCN(C)CC3)ncc2-c2cc(C)no2)CC1
12 | – | – | 27% | Not Active | 2 ×10⁻⁶ cm/s | 221 µM (≈ 86.7 µg/mL) | CC(=O)N1CCC(c2nc(NCc3ccccn3)ncc2-c2cc(C)no2)CC1
13 | – | – | 84% | Not Active | 2 ×10⁻⁶ cm/s | 233 µM (≈ 83.7 µg/mL) | COCCNc1ncc(-c2cc(C)no2)c(C2CCN(C(C)=O)CC2)n1
14 | – | Insoluble | < 20% | Not Active | > 10 ×10⁻⁶ cm/s | – | CC(=O)N1CCC(c2nc(NCc3ccc(F)cc3)ncc2-c2cc(C)no2)CC1
15 | – | – | < 20% | – | 2 ×10⁻⁶ cm/s | 238 µM (≈ 93.4 µg/mL) | CC(=O)N1CCC(c2nc(NCc3cccnc3)ncc2-c2cc(C)no2)CC1
16 | – | – | 59% | Not Active | > 10 ×10⁻⁶ cm/s | 207 µM (≈ 73.6 µg/mL) | CC(=O)N1CCC(c2nc(N3CCCC3)ncc2-c2cc(C)no2)CC1
17 | 10.6 µM | – | 75% | – | > 10 ×10⁻⁶ cm/s | 211 µM (≈ 78.4 µg/mL) | CC(=O)N1CCC(c2nc(N3CCOCC3)ncc2-c2cc(C)no2)CC1
18 | – | – | 75% | Not Active | > 10 ×10⁻⁶ cm/s | 224 µM (≈ 76.9 µg/mL) | CC(=O)N1CCC(c2nc(NC(C)C)ncc2-c2cc(C)no2)CC1
